Measurements: patent US20230271770A1, “Anti-Viral Pharmaceutical Formulations Administered Via Devices for Lung Targeted Delivery” (priority 2020, published 2023)
Like-named read-outs stand apart in the source and are kept apart here.

Key:
SARS-CoV-2 [1] = settings: Reference [4]; read-out: EC 50, for SARS-Cov2, Treatment 48 hrs; cited from earlier work
SARS-CoV-2 [2] = settings: Reference [3], cited from earlier work
SARS-CoV-2 [3] = settings: Reference [3]; read-out: EC 50, for SARS-Cov2, Treatment 24 hrs; cited from earlier work
[4] = In-line Cascade Impactor (Andersen) evaluation, MDI actuator through elbow connection and ventilator tubing; assay type: physicochemical; design: Delivered <1.1 mcm / Delivered <4.7 mcm: unit not given here; settings: Alveoli, in-Line Tube (55 cm), HCQB-e, connection w/inner channel, Ave, 5% EtOH, 200 mcg
Protocol: An example of a ventilator device, for example ventilator device 1700A, was tested and compared to a self-administrable, handheld MDI to determine the target site delivery efficiency in the ventilator circuit as compared to the MDI delivery efficiency without the ventilator circuit (e.g. no elbow connector or ventilator tubing).
Prime HCQ valve by discharging a predetermined number of actuations to waste. Discharge 10 actuations with actuator H004B-a into the cascade impaction sampling apparatus through an elbow connection w/inner channel and an in-line tubing (55 cm long).
Prime HCQ valve by discharging a predetermined number of actuations to waste. Discharge 10 actuations with actuator H004B-c into the cascade impaction sampling apparatus through an elbow connection with an inner channel and an in-line tubing (55 cm long).
Prime HCQ valve by discharging a predetermined number of actuations to waste. […]

Structure (SMILES)	EC50 (SARS-CoV-2 [1]) [µM]	EC50 (SARS-CoV-2 [2]; read-out: EC 50, for SARS-Cov2, Prophylactic Treatment 24 hrs) [µM]	EC50 (SARS-CoV-2 [2]; read-out: EC 50, for SARS-Cov2, Prophylactic Treatment 48 hrs) [µM]	EC50 (SARS-CoV-2 [3]) [µM]	Delivery Rate ([4]; <1.1 mcm) [%]	Delivered <1.1 mcm [4]
CCN(CC)CCCC(C)Nc1ccnc2cc(Cl)ccc12 (stereo not shown) [CQ, chloroquine]	1.13	> 100	18	23.9	–	–
CCN(CCO)CCCC(C)Nc1ccnc2cc(Cl)ccc12 (stereo not shown) [HICQ Base]	–	–	–	–	33.0	66.0
NC(=O)c1ncn([C@@H]2O[C@H](CO)[C@@H](O)[C@H]2O)n1 [Ribavirin]	106	–	–	–	–	–
